In patent US11266709B2, “Methods for the regulation of matrix metalloproteinase expression” (Stealth BioTherapeutics Corp, priority 2013, dated 2022):
Square brackets hold non-standard residues; d marks the D form. Peptide text beside a SMILES is read from it. Dmt = Cc1cc(O)cc(C)c1C[C@H](N)C(=O)O

Assays:
[1] = system: several mammalian cell types; settings: energy-independent manner; cited from earlier work
[2] = Survival during 6 weeks treatment after coronary occlusion; assay type: in vivo, rat; settings: 74 rats randomized to peptide or water, following 6 weeks treatment
Description: Rats were anesthetized, ventilated, and a thoracotomy performed in the left 4th intercostal space. Temperature was maintained at 36° C. by placing the rats on a heating pad during the procedure. The pericardium was excised and the proximal left coronary artery isolated and permanently occluded with a suture. Coronary artery occlusion was confirmed by cyanosis and akinesis of the anterior wall of the ventricle. The chest was closed, air evacuated, and the rats allowed to recover. Analgesia was administered per the veterinarian. An echocardiogram was obtained at approximately 15 minutes post coronary artery occlusion. At 2 hours rats were randomized to receive chronic daily D-Arg-2′6′-Dmt-Lys-Phe-NH2 (delivered subcutaneously by an Alzet Osmotic Pump—3 mg/kg/day) or water. […] Heart rate and blood pressure were measured. A Millar catheter was inserted into the left ventricle and LV systolic pressure, LV end diastolic pressure, +dP/dt, and −dP/dt were measured. […] Postmortem LV volume was measured by filling the LV cavity with fluid and measuring the total fluid. […] Quantitative histologic analysis included: total circumference, scar circumference, non-infarcted wall circumference, total LV area, total LV cavity area, LV wall thickness (at several points), non-infarcted wall thickness; myocardial infarct expansion index. […]

Row | Molecule | penetration of the plasma membrane [1] | deaths during treatment [2]
1 | 2′,6′-Dmt-D-Arg-Phe-Lys-NH2 | readily penetrates | –
2 | Cc1cc(O)cc(C)c1C[C@H](NC(=O)[C@H](N)CCCNC(=N)N)C(=O)N[C@@H](CCCCN)C(=O)N[C@@H](Cc1ccccc1)C(N)=O [D-Arg-2′6′-Dmt-Lys-Phe-NH2] (H-[dR][Dmt]KF-NH2) | – | no rats died
